This passage reports IC50 results from US9957264B2 (Merck Sharp & Dohme Corp., priority 2013, dated 2018).

Assay [1] has as its target JAK1 (recombinant purified GST-tagged catalytic domain) (Homo sapiens (Human), UniProt P23458). Put plainly: Jak Biochemical HTRF Assay (JAK1). The note with it: [ATP] 31.8 μM. In outline: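 GST-tagged human catalytic domains of JAK1 or JAK2 phosphorylated a biotinylated peptide substrate for 120 min at room temperature after ATP addition. Reaction quenched with EDTA stop buffer containing streptavidin-Dylight 650 and Eu-pY20 antibody; HTRF 665/615 nm ratio normalized to untreated controls, IC50 from 4-parameter fit.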

The target of assay [2] is JAK2 (recombinant purified GST-tagged catalytic domain) (Homo sapiens (Human), UniProt O60674). In words: Jak Biochemical HTRF Assay (JAK2). Particulars: [ATP] 8.5 μM. A general note: In TR-FRET formats the signal depends on donor and acceptor labels being close together.
Chain of JAK2 (recombinant purified GST-tagged catalytic domain) (O60674 849-1124): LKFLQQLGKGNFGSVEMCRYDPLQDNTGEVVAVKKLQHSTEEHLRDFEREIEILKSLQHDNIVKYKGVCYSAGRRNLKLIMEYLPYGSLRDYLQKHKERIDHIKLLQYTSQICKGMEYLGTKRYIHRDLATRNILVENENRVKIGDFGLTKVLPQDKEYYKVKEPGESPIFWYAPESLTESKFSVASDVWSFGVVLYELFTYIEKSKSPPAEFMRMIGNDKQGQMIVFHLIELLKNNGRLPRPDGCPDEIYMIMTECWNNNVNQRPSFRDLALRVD

Chain of JAK1 (recombinant purified GST-tagged catalytic domain) (P23458 875-1153): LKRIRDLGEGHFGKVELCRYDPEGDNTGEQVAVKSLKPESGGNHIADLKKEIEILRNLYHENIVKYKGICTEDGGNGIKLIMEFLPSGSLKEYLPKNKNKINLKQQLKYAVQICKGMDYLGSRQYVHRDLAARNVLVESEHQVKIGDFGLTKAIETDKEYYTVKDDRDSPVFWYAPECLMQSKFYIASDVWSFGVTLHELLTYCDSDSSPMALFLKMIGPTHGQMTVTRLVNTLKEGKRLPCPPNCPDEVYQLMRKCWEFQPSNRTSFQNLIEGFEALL

In the case of `Cc1cccc(Nc2nn(C3(CC#N)CCN(C(=O)OC(C)(C)C)CC3)c3cc[nH]c(=O)c23)c1` [Example 5-65, tert-butyl 4-(3-(m-toluidino)-4-oxo-4,5-dihydropyrazolo[4,3-c]pyridin-1-yl)-4-(cyanomethyl)piperidine-1-carboxylate], the IC50 was 0.21 nM in assay [1] and 3.22 nM in assay [2].

On to `CN(C)S(=O)(=O)c1ccc(Nc2nn(C3(CC#N)CCN(C(=O)C(C)(C)C)CC3)c3cc[nH]c(=O)c23)cc1` [Example 9-5, 4-({1-[4-(cyanomethyl)-1-(2,2-dimethylpropanoyl)piperidin-4-yl]-4-oxo-4,5-dihydro-1H-pyrazolo[4,3-c]pyridin-3-yl}amino)-N,N-dimethylbenzenesulfonamide], for which the results for the IC50 in assay [1] and in assay [2] were 0.55 nM and 3.05 nM, respectively.

Consider `COC(=O)N1CCC(CC#N)(n2nc(Nc3ccc(S(=O)(=O)C(C)(C)C)cc3)c3c(=O)[nH]ccc32)CC1` [Example 5-150, methyl 4-(3-((4-(tert-butylsulfonyl)phenyl)amino)-4-oxo-4,5-dihydro-1H-pyrazolo [4,3-c]pyridin-1-yl)-4-(cyanomethyl)piperidine-1-carboxylate], for which the IC50 in assay [1] turned out to be 0.1 nM; in assay [2] it was 0.14 nM.

For the compound `CC(C)(C)S(=O)(=O)c1ccc(Nc2nn(C3(CC#N)CCCC3)c3cc[nH]c(=O)c23)cc1` [Example 5-122, 2-(1-(3-((4-(tert-butylsulfonyl)phenyl)amino)-4-oxo-4,5-dihydro-1H-pyrazolo[4,3-c]pyridin-1-yl)cyclopentyl)acetonitrile], the IC50 in assay [1] was found to be 0.22 nM; in assay [2] it was 0.48 nM.

Take `CC(C)(C)OC(=O)[C@@H]1CC[C@@](CC#N)(n2nc(Nc3ccc(S(=O)(=O)C4CC4)cc3)c3c(=O)[nH]ccc32)CO1` [Example 5-236, (2S,5S)-tert-butyl 5-(cyanomethyl)-5-(3-((4-(cyclopropylsulfonyl)phenyl)amino)-4-oxo-4,5-dihydro-1H-pyrazolo[4,3-c]pyridin-1-yl)tetrahydro-2H-pyran-2-carboxylate]: the IC50 is 0.12 nM in assay [1] and 0.25 nM in assay [2].

For the compound `Cc1cc(Nc2nn([C@]3(CC#N)CC[C@@H](C(=O)OC(C)(C)C)OC3)c3cc[nH]c(=O)c23)ccc1C(=O)N1CCSC1C` (single isomer, unassigned) [Example 5-157, (2S,5S)-tert-butyl 5-(cyanomethyl)-5-(3-((3-methyl-4-((S or R)-2-methylthiazolidine-3-carbonyl)phenyl)amino)-4-oxo-4,5-dihydro-1H-pyrazolo[4,3-c]pyridin-1-yl)tetrahydro-2H-pyran-2-carboxylate], the results for the IC50 in assay [1] and in assay [2] were 0.19 nM and 0.27 nM, respectively.

For `Cc1cc(Nc2nn([C@]3(CC#N)CCCOC3)c3cc[nH]c(=O)c23)ccc1C(=O)N1CCC(C)(O)CC1` [Example 20-4, (S)-2-(3-(3-((4-(4-hydroxy-4-methylpiperidine-1-carbonyl)-3-methylphenyl)amino)-4-oxo-4,5-dihydro-1H-pyrazolo[4,3-c]pyridin-1-yl)tetrahydro-2H-pyran-3-yl)acetonitrile], the IC50 in assay [1] amounted to 0.35 nM; in assay [2], 0.88 nM.

As to `COC(=O)N1CCC(CC#N)(n2nc(Nc3ccc(C(F)(F)F)cc3)c3c(=O)[nH]ccc32)CC1` [Example 5-147, methyl 4-(cyanomethyl)-4-(4-oxo-3-((4-(trifluoromethyl)phenyl)amino)-4,5-dihydro-1H-pyrazolo[4,3-c]pyridin-1-yl)piperidine-1-carboxylate], the IC50 in assay [1] stood at 0.32 nM; in assay [2], 2.95 nM.

In the case of `COCC(=O)N1CCC(CC#N)(n2nc(Nc3ccc(S(=O)(=O)N(C)C)cc3)c3c(=O)[nH]ccc32)CC1` [Example 9-3, 4-({1-[4-(cyanomethyl)-1-(methoxyacetyl)piperidin-4-yl]-4-oxo-4,5-dihydro-1H-pyrazolo[4,3-c]pyridin-3-yl}amino)-N,N-dimethylbenzenesulfonamide], the IC50 in assay [1] was 0.24 nM; in assay [2], 1.63 nM.

As for `CCNC(c1ccc(Nc2nn([C@@]3(CC#N)CCCC[C@H]3F)c3cc[nH]c(=O)c23)cc1)C(F)(F)F` (single isomer, unassigned) [Example 5-174, {(1R,2R)-1-[3-({4-[(1R or 1S)-1-(ethylamino)-2,2,2-trifluoroethyl]phenyl}amino)-4-oxo-4,5-dihydro-1H-pyrazolo [4,3-c]pyridin-1-yl]-2-fluorocyclohexyl} acetonitrile], the IC50 in assay [1] and in assay [2] was 0.06 nM throughout.

As to `Cc1cc(Nc2nn([C@]3(CC#N)CC[C@@H](C(=O)OC(C)(C)C)OC3)c3cc[nH]c(=O)c23)ccc1C(=O)N1CCCC1` [Example 20-7, (2S,5S)-tert-butyl 5-(cyanomethyl)-5-(3-((3-methyl-4-(pyrrolidine-1-carbonyl)phenyl)amino)-4-oxo-4,5-dihydro-1H-pyrazolo[4,3-c]pyridin-1-yl)tetrahydro-2H-pyran-2-carboxylate], the IC50 worked out at 0.09 nM in assay [1] and 0.36 nM in assay [2].

Take `CC(C)S(=O)(=O)c1ccc(Nc2nn([C@]3(CC#N)CC[C@@H](C(=O)OC(C)(C)C)OC3)c3cc[nH]c(=O)c23)cc1` [Example 5-237, (2S,5S)-tert-butyl 5-(cyanomethyl)-5-(3-((4-(isopropylsulfonyl)phenyl)amino)-4-oxo-4,5-dihydro-1H-pyrazolo[4,3-c]pyridin-1-yl)tetrahydro-2H-pyran-2-carboxylate]: the IC50 in assay [1] was determined as 0.15 nM; in assay [2] it was 0.28 nM.

Take `CC(C)(C)N1Cc2cc(Nc3nn([C@]4(CC#N)CCOC4)c4cc[nH]c(=O)c34)ccc2S1(=O)=O` (single isomer, unassigned) [Example 5-248, (R or S)-2-(3-(3-((2-(tert-butyl)-1,1-dioxido-2,3-dihydrobenzo[d]isothiazol-5-yl)amino)-4-oxo-4,5-dihydro-1H-pyrazolo[4,3-c]pyridin-1-yl)tetrahydrofuran-3-yl)acetonitrile]: the figures for the IC50 in assay [1] and in assay [2] were 0.39 nM and 9.56 nM, respectively.

In the case of `CN(C)S(=O)(=O)c1ccc(Nc2nn(C3(CC#N)CCN(S(=O)(=O)C4CC4)CC3)c3cc[nH]c(=O)c23)cc1` [Example 14-2, 4-((1-(4-(cyanomethyl)-1-(cyclopropylsulfonyl)piperidin-4-yl)-4-oxo-4,5-dihydro-1H-pyrazolo[4,3-c]pyridin-3-yl)amino)-N,N-dimethylbenzenesulfonamide], the IC50 came to 0.06 nM in assay [1] and 0.12 nM in assay [2].

On to `N#CCC1(n2nc(Nc3ccc(C(F)(F)F)cc3)c3c(=O)[nH]ccc32)CCC(N2CC(F)C2)CC1` (single isomer, unassigned) [Example 18-1, 2-(4-(3-fluoroazetidin-1-yl)-1-(4-oxo-3-((4-(trifluoromethyl)phenyl)amino)-4,5-dihydro-1H-pyrazolo[4,3-c]pyridin-1-yl)cyclohexyl)acetonitrile], for which the values for the IC50 in assay [1] and in assay [2] were 0.26 nM and 0.94 nM, respectively.

With `CC(F)(F)C(=O)N1CCC(CC#N)(n2nc(Nc3ccc(S(=O)(=O)C(C)(C)C)cc3)c3c(=O)[nH]ccc32)CC1` [Example 5-59, 2-(4-(3-((4-(tert-butylsulfonyl)phenyl)amino)-4-oxo-4,5-dihydro-1H-pyrazolo[4,3-c]pyridin-1-yl)-1-(2,2-difluoro-propanoyl)piperidin-4-yl)acetonitrile], the IC50 was found to be 0.1 nM in assay [1] and 0.15 nM in assay [2].

As for `N#CCC1(n2nc(Nc3ccc([C@@H](O)C(F)(F)F)cc3)c3c(=O)[nH]ccc32)CCN(c2cc(C(F)(F)F)ccn2)CC1` (single isomer, unassigned) [Example 16-2, (R or S)-2-(4-(4-oxo-3-(4-(2,2,2-trifluoro-1-hydroxyethyl)phenylamino)-4,5-dihydropyrazolo[4,3-c]pyridin-1-yl)-1-(4-(trifluoromethyl)pyridin-2-yl)piperidin-4-yl)acetonitrile], the IC50 in assay [1] is 1.14 nM; in assay [2] it was 4.81 nM.

With `CC1(C)CCCC1S(=O)(=O)c1ccc(Nc2nn([C@]3(CC#N)CCCOC3)c3cc[nH]c(=O)c23)cc1` (stereo partly drawn) [Example 5-202, {(3S)-3-[3-({4-[(2,2-dimethylcyclopentyl)sulfonyl]phenyl}amino)-4-oxo-4,5-dihydro-1H-pyrazolo[4,3-c]pyridin-1-yl]tetrahydro-2H-pyran-3-yl}acetonitrile], the IC50 in assay [1] amounted to 0.39 nM; in assay [2], 1.2 nM.

Regarding `COC1CN([C@H]2CC[C@@](CC#N)(n3nc(Nc4ccc(Cl)c(F)c4)c4c(=O)[nH]ccc43)CC2)C1` [Example 18-23, Cis 2-(1-(3-((4-chloro-3-fluorophenyl)amino)-4-oxo-4,5-dihydro-1H-pyrazolo[4,3-c]pyridin-1-yl)-4-(3-methoxyazetidin-1-yl)cyclohexyl)acetonitrile], the IC50 in assay [1] is 125 nM; in assay [2], greater than 1500 nM.

Take `COC(c1ccc(Nc2nn([C@@]3(CC#N)CCN(C(=O)OC(C)(C)C)C[C@H]3F)c3cc[nH]c(=O)c23)cc1)C(F)(F)F` (some centres unmarked) [Example 5-275]: the IC50 worked out at 0.17 nM in assay [1] and 0.09 nM in assay [2].

In the case of `CCOC(=O)N1CCC(CC#N)(n2nc(Nc3ccc(S(=O)(=O)N(C)C)cc3)c3c(=O)[nH]ccc32)CC1` [Example 10-5, ethyl 4-(cyanomethyl)-4-(3-((4-(N,N-dimethylsulfamoyl)phenyl)amino)-4-oxo-4,5-dihydro-1H-pyrazolo[4,3-c]pyridin-1-yl)piperidine-1-carboxylate], the values for the 50% inhibitory concentration (IC50) in assay [1] and in assay [2] were 0.12 nM and 0.29 nM, respectively.

`COCC(C)OC(=O)N1CCC(CC#N)(n2nc(Nc3ccc(S(=O)(=O)N(C)C)cc3)c3c(=O)[nH]ccc32)CC1` (centres unmarked) [Example 11-5, 1-methoxypropan-2-yl 4-(cyanomethyl)-4-(3-((4-(N,N-dimethylsulfamoyl)phenyl)amino)-4-oxo-4,5-dihydro-1H-pyrazolo[4,3-c]pyridin-1-yl)piperidine-1-carboxylate]: the IC50 in assay [1] stood at 0.27 nM; in assay [2], 0.61 nM.

In general, IC50 refers to the concentration that inhibits the measured activity by half.
